Patent EP4596574A1, “GLP-1/GCG/GIP TRIPLE-RECEPTOR AGONIST AND USE THEREOF” (Sunshine Lake Pharma Co., Ltd., priority 2022, dated 2024)
Marks after values point to notes of the source that are not given here.

What was measured:
GLP-1R = molecular target: T1, GLP-1R (Homo sapiens, UniProt P43220); test: In vitro cell activity, cAMP production in HEK293 cells expressing GLP-1R; format: cell-based
T1 construct: expressed in transfected cells; host or cells: HEK293 (HEK293-GLP-1R)
Method in brief: (§1)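 HEK293 transfectants, 4×10^5 cells/mL, 384-well. Detection: cAMP-d2 + anti-cAMP cryptate 1:1, RT 1 h dark or 4 °C o/n. Read 665/620 nm; 4-parameter nonlinear fit → EC50.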

GCGR = molecular target: T2, GCGR (Homo sapiens, UniProt P47871); test: In vitro cell activity, cAMP production in HEK293 cells expressing GCGR; format: cell-based
T2 construct: expressed in transfected cells; host or cells: HEK293 (HEK293-GCGR)
Method in brief: as §1

GIPR = molecular target: T3, GIPR (Homo sapiens, UniProt P48546); test: In vitro cell activity, cAMP production in HEK293 cells expressing GIPR; format: cell-based
T3 construct: expressed in transfected cells; host or cells: HEK293 (HEK293-GIPR)
T3 sequence (P48546 22-466): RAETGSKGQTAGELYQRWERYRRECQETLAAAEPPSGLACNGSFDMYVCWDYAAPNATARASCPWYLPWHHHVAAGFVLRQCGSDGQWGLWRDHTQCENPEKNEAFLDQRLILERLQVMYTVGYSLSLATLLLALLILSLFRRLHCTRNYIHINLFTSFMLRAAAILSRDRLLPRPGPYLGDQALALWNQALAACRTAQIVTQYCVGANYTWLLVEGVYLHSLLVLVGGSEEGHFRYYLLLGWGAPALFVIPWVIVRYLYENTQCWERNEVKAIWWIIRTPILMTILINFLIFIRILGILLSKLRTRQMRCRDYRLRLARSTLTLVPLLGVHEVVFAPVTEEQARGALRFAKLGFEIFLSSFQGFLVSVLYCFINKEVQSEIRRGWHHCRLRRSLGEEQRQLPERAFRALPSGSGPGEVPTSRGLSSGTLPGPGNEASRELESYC
Method in brief: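 HEK293 cells expressing human GIPR, thawed and diluted to 4×10^5 cells/mL, are stimulated with test compound. cAMP is measured by HTRF competition between cAMP-d2 and anti-cAMP cryptate. EC50 comes from a four-parameter nonlinear fit of signal ratio against concentration.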

[1] = Glucose tolerance assessment in normal C57BL/6 mice (Example 5); format: in vivo; settings: for Blood glucose level (mM) 15 min / Blood glucose level (mM) 30 min / Blood glucose level (mM) 60 min / Blood glucose level (mM) 90 min / Blood glucose level (mM) 0 min / AUC0-90 min: 3 nmol/kg s.c. single dose, 24 h after administration; for Blood glucose level (mM) 15 min: 15 min after 2 g/kg glucose i.p.; for Blood glucose level (mM) 30 min: 30 min after 2 g/kg glucose i.p.; for Blood glucose level (mM) 60 min: 60 min after 2 g/kg glucose i.p.; for Blood glucose level (mM) 90 min: 90 min after 2 g/kg glucose i.p.; for Blood glucose level (mM) 0 min: basal before 2 g/kg glucose i.p.; for AUC0-90 min: blood glucose AUC, 2 g/kg glucose i.p.
Procedure: Twelve hours after the single administration, the animals were fasted for 12 hours and had free access to water. Blood was collected from the tail vein to determine the basal blood glucose level of each group of animals, and then 2 g/kg glucose solution was injected intraperitoneally. Blood glucose was tested at 15, 30, 60, and 90 min after glucose administration. The blood glucose concentration-time curve was drawn according to the blood glucose values measured at different time points, and the AUC0~90min of each dose group was calculated as shown in Table 5 and Figure 2. Table 5: Effects of single administration of HEC-PT86, HEC-PT96, HEC-PT112, HEC-PT113, HEC-PT114, and HEC-PT119 on glucose tolerance in normal C57 mice 24 h after administration

[2] = Long-term repeated administration in diet-induced obese C57BL/6 mice (DIO); format: in vivo, C57/BL6 mice
Text: Experimental methods: C57/BL6 mice were randomly divided into a normal group (NFD) and a model group (HFD) at the fifth week of age. The normal group was fed with ordinary maintenance feed, while the other groups were fed with high-fat feed D12492. The body weight and food intake of mice were monitored every 3 weeks. After 16 weeks of feeding, the body weights of mice in the model group and the normal group were (49.0±2.3) g and (31.0±2.0) g, respectively, and the difference between the two groups was statistically significant. […] Body weight and food intake were measured before each administration. After 3 weeks of administration, an intraperitoneal glucose tolerance test was performed. The mice were slaughtered and samples were collected 72 h after the last administration. The liver weight was recorded, and the liver pathological conditions and blood biochemical indexes of each group were tested.

[3] = 10 nmol/kg s.c. once every 3 days, D7
[4] = 10 nmol/kg s.c. once every 3 days, D10
[5] = 10 nmol/kg s.c. once every 3 days, D13
[6] = 10 nmol/kg s.c. once every 3 days, D16
[7] = 10 nmol/kg s.c. once every 3 days, D19
[8] = 10 nmol/kg s.c. once every 3 days, D22
[9] = 10 nmol/kg s.c. once every 3 days, D25
[10] = 10 nmol/kg s.c. once every 3 days, D28
[11] = after 4 weeks of administration, same dose
[12] = long-term administration 10 nmol/kg, 72 h after the last administration
[13] = long-term administration 10 nmol/kg, blood biochemical index

T1 sequence (P43220 24-463, species assumed): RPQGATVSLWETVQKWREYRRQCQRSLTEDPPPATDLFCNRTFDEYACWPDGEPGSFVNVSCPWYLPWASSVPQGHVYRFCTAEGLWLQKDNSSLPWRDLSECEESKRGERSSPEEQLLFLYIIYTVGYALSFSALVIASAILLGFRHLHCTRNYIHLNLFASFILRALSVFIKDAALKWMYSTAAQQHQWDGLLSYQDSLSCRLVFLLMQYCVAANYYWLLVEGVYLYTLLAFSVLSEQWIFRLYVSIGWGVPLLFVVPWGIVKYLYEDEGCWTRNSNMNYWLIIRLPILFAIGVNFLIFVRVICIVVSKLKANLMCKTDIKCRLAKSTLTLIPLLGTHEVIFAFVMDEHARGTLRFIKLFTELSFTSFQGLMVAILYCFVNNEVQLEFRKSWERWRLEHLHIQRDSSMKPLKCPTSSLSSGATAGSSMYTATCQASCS
T2 sequence (P47871 26-477, species assumed): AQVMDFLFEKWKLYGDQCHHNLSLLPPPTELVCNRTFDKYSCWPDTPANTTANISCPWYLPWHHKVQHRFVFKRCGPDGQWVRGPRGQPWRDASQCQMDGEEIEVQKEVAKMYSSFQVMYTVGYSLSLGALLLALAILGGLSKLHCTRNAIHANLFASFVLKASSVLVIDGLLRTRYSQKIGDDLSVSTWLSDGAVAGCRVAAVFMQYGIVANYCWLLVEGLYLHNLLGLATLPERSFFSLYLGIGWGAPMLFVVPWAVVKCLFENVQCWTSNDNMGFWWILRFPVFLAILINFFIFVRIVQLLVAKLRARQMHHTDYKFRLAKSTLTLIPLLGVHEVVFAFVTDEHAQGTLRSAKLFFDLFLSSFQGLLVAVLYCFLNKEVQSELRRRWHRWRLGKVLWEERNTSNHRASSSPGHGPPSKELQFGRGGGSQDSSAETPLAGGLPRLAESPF

Compound: CC[C@H](C)[C@H](NC(=O)[C@H](CCCCN)NC(=O)[C@H](CC(=O)O)NC(=O)[C@H](CCCCNC(=O)COCCOCCNC(=O)CC[C@H](NC(=O)CCCCCCCCCCCCCCCCC(=O)O)C(=O)O)NC(=O)[C@H](CC(C)C)NC(=O)[C@@H](NC(=O)[C@H](CO)NC(=O)[C@H](Cc1ccc(O)cc1)NC(=O)[C@H](CC(=O)O)NC(=O)[C@H](CO)NC(=O)[C@@H](NC(=O)[C@](C)(Cc1ccccc1F)NC(=O)[C@@H](NC(=O)CNC(=O)[C@H](CCC(N)=O)NC(=O)C(C)(C)NC(=O)[C@@H](N)Cc1ccc(O)cc1)[C@@H](C)O)[C@@H](C)O)[C@@H](C)CC)C(=O)N[C@@H](C)C(=O)N[C@@H](CCC(N)=O)C(=O)NC(C)(C)C(=O)N[C@@H](C)C(=O)N[C@@H](Cc1ccccc1)C(=O)N[C@H](C(=O)N[C@@H](CCC(=O)O)C(=O)N[C@@H](Cc1ccc(O)cc1)C(=O)N[C@@H](CC(C)C)C(=O)N[C@@H](CC(C)C)C(=O)N[C@@H](CCC(=O)O)C(=O)NCC(=O)NCC(=O)N1CCC[C@H]1C(=O)N[C@@H](CO)C(=O)N[C@@H](CO)C(=O)NCC(=O)N[C@@H](C)C(=O)N1CCC[C@H]1C(=O)N1CCC[C@H]1C(=O)N1CCC[C@H]1C(=O)N[C@@H](CO)C(N)=O)[C@@H](C)CC [HEC-PT114]
- EC50 (GLP-1R): 0.12 nM
- EC50 (GCGR): 0.138 nM
- EC50 (GIPR): 0.0567 nM
- Blood glucose level (mM) 15 min [1]: 13.5 ± 1.0 mM
- Blood glucose level (mM) 30 min [1]: 9.8 ± 0.8 mM
- Blood glucose level (mM) 60 min [1]: 7.9 ± 0.8 mM
- Blood glucose level (mM) 90 min [1]: 6.3 ± 0.8 mM
- Blood glucose level (mM) 0 min [1]: 4.9 ± 1.0 mM
- AUC0-90 min [1]: 791.0±55.3^a

Compound: CC[C@H](C)[C@H](NC(=O)[C@H](Cc1ccccc1)NC(=O)[C@H](C)NC(=O)C(C)(C)NC(=O)[C@H](CCC(N)=O)NC(=O)[C@H](CCCNC(=N)N)NC(=O)[C@H](CCCCNC(=O)COCCOCCNC(=O)CC[C@H](NC(=O)CCCCCCCCCCCCCCCCC(=O)O)C(=O)O)NC(=O)[C@H](CCC(=O)O)NC(=O)[C@H](CC(=O)O)NC(=O)[C@H](CC(C)C)NC(=O)[C@H](CC(C)C)NC(=O)[C@@H](NC(=O)[C@H](CO)NC(=O)[C@H](Cc1ccc(O)cc1)NC(=O)[C@H](CC(=O)O)NC(=O)[C@H](CO)NC(=O)[C@@H](NC(=O)[C@](C)(Cc1ccccc1F)NC(=O)[C@@H](NC(=O)CNC(=O)[C@H](CCC(N)=O)NC(=O)C(C)(C)NC(=O)[C@@H](N)Cc1ccc(O)cc1)[C@@H](C)O)[C@@H](C)O)[C@@H](C)CC)C(=O)N[C@@H](CCC(=O)O)C(=O)N[C@@H](Cc1ccc(O)cc1)C(=O)N[C@@H](CC(C)C)C(=O)N[C@@H](CC(C)C)C(=O)N[C@@H](C)C(=O)NCC(=O)NCC(=O)N1CCC[C@H]1C(=O)N[C@@H](CO)C(=O)N[C@@H](CO)C(=O)NCC(=O)N[C@@H](C)C(=O)N1CCC[C@H]1C(=O)N1CCC[C@H]1C(=O)N1CCC[C@H]1C(=O)N[C@@H](CO)C(N)=O [HEC-PT112]
- EC50 (GLP-1R): 0.183 nM
- EC50 (GCGR): 0.871 nM
- EC50 (GIPR): 0.0534 nM
- Blood glucose level (mM) 15 min [1]: 11.7 ± 2.6 mM
- Blood glucose level (mM) 30 min [1]: 8.6 ± 1.9 mM
- Blood glucose level (mM) 60 min [1]: 7.3 ± 0.7 mM
- Blood glucose level (mM) 90 min [1]: 6.7 ± 0.6 mM
- Blood glucose level (mM) 0 min [1]: 4.9 ± 1.3 mM
- improvement of glucose tolerance compared with LY3298176 ([1]; 24 hours after a single administration, 3 nmol/kg): improved glucose tolerance in mice better than the positive control LY3298176
- AUC0-90 min [1]: 726.2±82.4^a
- Cumulative food intake (g/pcs) D7 [2, 3]: 5.6 g/pcs
- Weight gain rate (%) D7 [2, 3]: -21.3±4.0%
- Cumulative food intake (g/pcs) D10 [2, 4]: 7.8 g/pcs
- Weight gain rate (%) D10 [2, 4]: -28.6±7.0%
- Cumulative food intake (g/each) D13 [2, 5]: 10.6 g/each
- Weight gain rate (%) D13 [2, 5]: -32.4±7.7%
- Cumulative food intake (g/each) D16 [2, 6]: 15.5 g/each
- Weight gain rate (%) D16 [2, 6]: -34.0±7.1%
- Cumulative food intake (g/each) D19 [2, 7]: 21.0 g/each
- Weight gain rate (%) D19 [2, 7]: -34.5±5.7%
- Cumulative food intake (g/each) D22 [2, 8]: 26.6 g/each
- Weight gain rate (%) D22 [2, 8]: -35.6±5.6%
- Cumulative food intake (g/each) D25 [2, 9]: 32.3 g/each
- Weight gain rate (%) D25 [2, 9]: -36.4±5.1%
- Cumulative food intake (g/each) D28 [2, 10]: 39.1 g/each
- Weight gain rate (%) D28 [2, 10]: -36.2±4.3%
- Cumulative food intake (g/each) D30 ([2]; 10 nmol/kg s.c. once every 3 days, D30): 43.0^a g/each
- Weight gain rate (%) D31 ([2]; 10 nmol/kg s.c. once every 3 days, D31): -35.6±4.3^a %
- Cumulative food intake (g/pcs) D0 ([2]; 10 nmol/kg s.c., D0): 2.3 g/pcs
- Weight gain rate (%) D0 ([2]; 10 nmol/kg s.c., D0): 0.0±0.0%
- Cumulative food intake (g/pcs) D1 ([2]; 10 nmol/kg s.c., D1): 2.5 g/pcs
- Weight gain rate (%) D1 ([2]; 10 nmol/kg s.c., D1): -5.4±0.9%
- Cumulative food intake (g/pcs) D2 ([2]; 10 nmol/kg s.c., D2): 2.9 g/pcs
- Weight gain rate (%) D2 ([2]; 10 nmol/kg s.c., D2): -8.8±0.8%
- Cumulative food intake (g/pcs) D3 ([2]; 10 nmol/kg s.c., D3): 3.5 g/pcs
- Weight gain rate (%) D3 ([2]; 10 nmol/kg s.c., D3): -10.6±1.0%
- Cumulative food intake (g/pcs) D4 ([2]; 10 nmol/kg s.c., D4): 4.1 g/pcs
- Weight gain rate (%) D4 ([2]; 10 nmol/kg s.c., D4): -12.6±1.7%
- liver function and blood lipids of DIO mice ([2]; after 4 weeks of administration): significantly improved the liver function and blood lipids
- food intake inhibition effect compared with LY3298176 [2, 11]: certain advantages in inhibiting food intake
- weight loss effect compared with LY3298176 [2, 11]: significantly better than that of LY3298176
- Liver index/% [2, 12]: 3.0±0.0^a %
- Liver/g [2, 12]: 0.9±0.1^a g
- Weight/g [2, 12]: 29.7±2.5^a g
- ALT (U/L) [2, 13]: 25.9±6.6^a U/L
- AST (U/L) [2, 13]: 115.3±16.2^a U/L
- CHOL (mmol/L) [2, 13]: 3.1±0.5^a mmol/L
- TRIGL (mmol/L) [2, 13]: 0.6±0.1^a mmol/L
